Assay: Solubility and room temperature stability of M4N in modified cyclodextrin / PEG formulations (visual inspection)
Format: physicochemical
Protocol: A 100 mL solution of 40% HP-β-CD for use as a solubilizing agent and/or excipient was made as follows: 65 mL of WFI were placed in a glass beaker containing a stir bar. The beaker was placed on a magnetic plate, and the stir bar was set to stir at medium speed. About forty (40) grams of HP-β-CD were added slowly to the stirring WFI, using a spatula to direct the HP-β-CD to the center of the beaker so as to prevent HP-β-CD crystals from sticking to the beaker wall. The HP-β-CD solution was stirred for about 24 hr or until the HP-β-CD was dissolved completely upon visual inspection. The resulting solution measured about 93 mL. About 7 mL of WFI was added to this resulting solution to obtain 100 mL, producing a final solution of about 40% HP-β-CD. The final solution was stirred for about 1 hr, stored at room temperature, and was protected from light. This method of making the modified cyclodextrin solution may be scaled up or down to obtain the desired volume or concentration. Other concentrations or other modified cyclodextrin solutions may be similarly made, for example, by substituting HP-β-CD with other modified cyclodextrins, adjusted for the appropriate concentrations in the process described above.
A 10 mL solution of M4N at a concentration of about 10 mg/mL in 40% HP-β-CD was made as follows. About 10 mL of the 40% HP-β-CD solution were added to a glass beaker containing a stir bar. The beaker was placed on a magnetic plate and the stir bar was set to stir at medium speed. About […] of M4N were slowly added to the 40% HP-β-CD in the center of the beaker with the aid of a spatula. The M4N/40% HP-β-CD mixture was stirred for 2 hr or until all M4N was uniformly suspended without any clumps being present. The M4N/40% HP-β-CD mixture was optionally heated at 80° C. for about 30 min. (or longer if a larger volume of solution was desired, for example, 1 hr at 80° C. for 100 mL of the M4N/HP-β-CD mixture), or longer as needed to ensure complete dissolution of M4N. […] The final M4N/40% HP-β-CD solution was stored at room temperature and was kept protected from light. This process may be scaled up or down to obtain the requisite volume or concentration of M4N. Formulations containing M4N in other cyclodextrin solutions may be similarly made, such as, for example, by substituting HP-β-CD in the process described above with other cyclodextrins.
A 100 mL solution of M4N at a concentration of about 25 mg/mL in PEG 300 was made as follows. About 100 mL of PEG 300 were added to a glass beaker containing a stir bar. The beaker was placed on a magnetic plate and the stir bar was set to stir at medium speed. About 2.5 g of M4N were slowly added to the PEG 300 in the center of the beaker with the aid of a spatula to prevent M4N from sticking to the beaker wall. The M4N/PEG 300 mixture was stirred for 24 hr or until all M4N had dissolved or was uniformly suspended without any clumps being present. The M4N/PEG 300 mixture was optionally heated at about 60° C. for about 30 min. (or longer if a larger volume of solution was desired, for example, 1 hr at 60° C. for 500 mL of the M4N/PEG 300 mixture), or longer as needed to ensure complete dissolution of M4N. […] If crystals formed, the M4N/PEG 300 solution could be heated again at 60° C. for about 1 hr, with stirring, on a hot magnetic plate until all M4N was dissolved back in solution. The final M4N/PEG 300 solution was stored at room temperature and was kept protected from light. This process may be scaled up or down to obtain the requisite volume or concentration of M4N. Formulations containing M4N in other PEGs may be similarly made, such as, for example, by substituting PEG 300 in the process described above with PEG 400 or PEG 400 monolaurate. […]

COc1ccc(C[C@@H](C)[C@@H](C)Cc2ccc(OC)c(OC)c2)cc1OC [Formulation M4N, meso-1,4-bis(3,4-dimethoxyphenyl)-2,3-dimethylbutane]
Dissolution After Heating at X ° C. (1.50% β-CD, M4N 1 mg/mL, 90°): N at 90° | Dissolution After Heating at X ° C. (1.50% β-CD, M4N 10 mg/mL, 90°): N at 90° | Stability at Room Temperature (5% HP-β-CD, 12.5% PEG 300 (v/v), M4N 3.13 mg/mL): <7 days | Dissolution After Heating at X ° C. (5% HP-β-CD, 12.5% PEG 300 (v/v), M4N 3.13 mg/mL, 60°): Y at 60° | Dissolution After Heating at X ° C. (5% γ-CD, M4N 1 mg/mL, 90°): N at 90° | Stability at Room Temperature (6.7% HP-β-CD, 16.7% PEG 300 (v/v), M4N 4.17 mg/mL): >7 days | Dissolution After Heating at X ° C. (6.7% HP-β-CD, 16.7% PEG 300 (v/v), M4N 4.17 mg/mL, 60°): Y at 60° | Stability at Room Temperature (10% HP-β-CD, 25% PEG 300 (v/v), M4N 6.25 mg/mL): >7 days | Dissolution After Heating at X ° C. (10% HP-β-CD, 25% PEG 300 (v/v), M4N 6.25 mg/mL, 60°): Y at 60° | Dissolution After Heating at X ° C. (10% HP-β-CD, 77% PEG 300 (v/v), M4N 19.3 mg/mL, 60°): Y at 60° | Stability at Room Temperature (12.5% HP-β-CD, 50% PEG 300 (v/v), M4N 12.5 mg/mL): <1 days | Dissolution After Heating at X ° C. (12.5% HP-β-CD, 50% PEG 300 (v/v), M4N 12.5 mg/mL, 60°): Y at 60° | Dissolution After Heating at X ° C. (13% HP-β-CD, 67% PEG 300 (v/v), M4N 16.7 mg/mL, 60°): Y at 60° | Stability at Room Temperature (15% HP-β-CD, 50% PEG 300 (v/v), M4N 12.5 mg/mL): <7 days | Dissolution After Heating at X ° C. (15% HP-β-CD, 50% PEG 300 (v/v), M4N 12.5 mg/mL, 60°): Y at 60° | Dissolution After Heating at X ° C. (15% α-CD, M4N 10 mg/mL, 90°): N at 90° | Dissolution After Heating at X ° C. (15% α-CD, M4N 50 mg/mL, 90°): N at 90° | Dissolution After Heating at X ° C. (15% α-CD, M4N 100 mg/mL, 90°): N at 90° | Stability at Room Temperature (20% HP-β-CD, 50% PEG 300 (v/v), M4N 12.5 mg/mL): >7 days | Dissolution After Heating at X ° C. (20% HP-β-CD, 50% PEG 300 (v/v), M4N 12.5 mg/mL, 60°): Y at 60° | Stability at Room Temperature (20% HP-β-CD, M4N 1 mg/mL): >7 days | Dissolution After Heating at X ° C. (20% HP-β-CD, M4N 1 mg/mL, 90°): Y at 90° | Dissolution After Heating at X ° C. (20% HP-β-CD, M4N 10 mg/mL, 90°): N at 90° | Stability at Room Temperature (23% HP-β-CD, 43 PEG 300 (v/v), M4N 12.9 mg/mL): >7 days | Dissolution After Heating at X ° C. (23% HP-β-CD, 43 PEG 300 (v/v), M4N 12.9 mg/mL, 60°): Y at 60° | Stability at Room Temperature (27% HP-β-CD, 33% PEG 300 (v/v), M4N 13.3 mg/mL): >7 days | Dissolution After Heating at X ° C. (27% HP-β-CD, 33% PEG 300 (v/v), M4N 13.3 mg/mL, 60°): Y at 60° | Stability at Room Temperature (27% HP-β-CD, 33% PEG 400 (v/v), M4N 13.3 mg/mL): >7 days | Stability at Room Temperature (30% HP-β-CD, 25% PEG 400 (v/v), M4N 12.5 mg/mL): >7 days | Dissolution After Heating at X ° C. (30% HP-β-CD, 25% PEG 400 (v/v), M4N 12.5 mg/mL, 60°): Y at 60° | Stability at Room Temperature (30% HP-β-CD, M4N 1 mg/mL): >7 days | Dissolution After Heating at X ° C. (30% HP-β-CD, M4N 1 mg/mL, 90°): Y at 90° | Stability at Room Temperature (30% HP-β-CD, M4N 10 mg/mL): <3 days | Dissolution After Heating at X ° C. (30% HP-β-CD, M4N 10 mg/mL, 90°): Y at 90° | Dissolution After Heating at X ° C. (30% HP-β-CD, M4N 20 mg/mL, 90°): N at 90° | Dissolution After Heating at X ° C. (30% HP-β-CD, M4N 50 mg/mL, 90°): N at 90° | Dissolution After Heating at X ° C. (30% HP-β-CD, M4N 100 mg/mL, 90°): N at 90° | Stability at Room Temperature (32% HP-β-CD, 20% PEG 400 (v/v), M4N 10 mg/mL): >7 days | Dissolution After Heating at X ° C. (32% HP-β-CD, 20% PEG 400 (v/v), M4N 10 mg/mL, 60°): Y at 60° | Dissolution After Heating at X ° C. (40% HP-β-CD, 1% PVP (w/v), M4N 1 mg/mL): N | Dissolution After Heating at X ° C. (40% HP-β-CD, 1% PVP (w/v), M4N 10 mg/mL): N | Dissolution After Heating at X ° C. (40% HP-β-CD, 2.5% PG (v/v), M4N 1 mg/mL, 80°): N at 80° | Dissolution After Heating at X ° C. (40% HP-β-CD, 2.5% PG (v/v), M4N 10 mg/mL, 80°): N at 80° | Stability at Room Temperature (40% HP-β-CD, M4N 1 mg/mL): >7 days | Dissolution After Heating at X ° C. (40% HP-β-CD, M4N 1 mg/mL, 80°): Y at 80° | Stability at Room Temperature (40% HP-β-CD, M4N 10 mg/mL): >7 days | Dissolution After Heating at X ° C. (40% HP-β-CD, M4N 10 mg/mL, 80°): Y at 80° | Dissolution After Heating at X ° C. (40% HP-β-CD, M4N 12 mg/mL, 80°): N at 80° | Dissolution After Heating at X ° C. (40% HP-β-CD, M4N 14 mg/mL, 80°): N at 80° | Dissolution After Heating at X ° C. (40% HP-β-CD, M4N 16 mg/mL, 80°): N at 80° | Dissolution After Heating at X ° C. (40% HP-β-CD, M4N 20 mg/mL, 80°): N at 80° | Dissolution After Heating at X ° C. (40% HP-β-CD, M4N 50 mg/mL, 80°): N at 80° | Dissolution After Heating at X ° C. (40% HP-β-CD, M4N 100 mg/mL, 80°): N at 80° | Stability at Room Temperature (50% HP-β-CD in saline, M4N 10 mg/mL): >7 days | Dissolution After Heating at X ° C. (50% HP-β-CD in saline, M4N 10 mg/mL, 90°): Y at 90° | Stability at Room Temperature (50% HP-β-CD, 1.25% PVP (w/v), M4N 1 mg/mL): <3 days | Dissolution After Heating at X ° C. (50% HP-β-CD, 1.25% PVP (w/v), M4N 1 mg/mL, 90°): Y at 90° | Dissolution After Heating at X ° C. (50% HP-β-CD, 1.25% PVP (w/v), M4N 10 mg/mL): N | Dissolution After Heating at X ° C. (50% HP-β-CD, 1.25% PVP (w/v), M4N 50 mg/mL): N | Stability at Room Temperature (50% HP-β-CD, M4N 1 mg/mL): >7 days | Dissolution After Heating at X ° C. (50% HP-β-CD, M4N 1 mg/mL, 90°): Y at 90° | Stability at Room Temperature (50% HP-β-CD, M4N 10 mg/mL): >7 days | Dissolution After Heating at X ° C. (50% HP-β-CD, M4N 10 mg/mL, 90°): Y at 90° | Dissolution After Heating at X ° C. (50% HP-β-CD, M4N 20 mg/mL, 90°): N at 90° | Dissolution After Heating at X ° C. (50% HP-β-CD, M4N 50 mg/mL, 90°): N at 90° | Dissolution After Heating at X ° C. (50% HP-β-CD, M4N 100 mg/mL, 90°): N at 90° | remained in solution after cooling (M4N 1 mg/mL and 10 mg/mL in 40% HP-β-CD): greater than 7 days

From patent US20080096967A1, “Formulations for Injection of Catecholic Butanes, Including Ndga Compounds, Into Animals” (priority 2005, published 2008)
